Data set [1] in a line: Pharmacokinetics in mini-pigs after i.v. administration. To be noted: female, Göttingen, minipig, plasma, iv, 5 nmol/kg; for half-life: T1/2 Mean Value, Göttingen mini-pigs, N=3. In short, it runs like this:
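Female Göttingen mini-pigs (15-20 kg, N=3) received 5 nmol/kg i.v. via central venous catheter. Plasma levels of N-terminally intact peptide measured by LOCI immunoassay with N-terminal and mid-/C-terminal antibodies; non-compartmental analysis of individual profiles.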

Data set [2] has as its system Mouse monocyte/macrophage cell line, RAW 264.7. Description: Cholesterol efflux assay (3H-cholesterol, macrophage cell line). It counts as cell-based. Conditions: RAW 264.7, 4 hrs incubation, 0.1% human serum albumin, ABCA1-mediated efflux.
The next data set deals with human GLP-1 receptor (Homo sapiens, UniProt P43220). Briefly: Functional GLP-1 receptor assay, in vitro potency (CRE luciferase; whole cells). It counts as cell-based. Conditions: BHK cells expressing human GLP-1 receptor.
The mark [3] stands for this setting: 0% HSA, read-out: GLP1R CRE luc 0% HSA EC50 Mean Value.
The mark [4] stands for this setting: GLP1R CRE luc 1% HSA EC50 Mean Value, 1% HSA.

Like-named read-outs stand apart in the source and are kept apart here. Where a SMILES comes first, the peptide text is derived from it. [ ]: non-standard residue; d: D form. Aib = CC(C)(N)C(=O)O

human GLP-1 receptor, sequence (P43220 24-463): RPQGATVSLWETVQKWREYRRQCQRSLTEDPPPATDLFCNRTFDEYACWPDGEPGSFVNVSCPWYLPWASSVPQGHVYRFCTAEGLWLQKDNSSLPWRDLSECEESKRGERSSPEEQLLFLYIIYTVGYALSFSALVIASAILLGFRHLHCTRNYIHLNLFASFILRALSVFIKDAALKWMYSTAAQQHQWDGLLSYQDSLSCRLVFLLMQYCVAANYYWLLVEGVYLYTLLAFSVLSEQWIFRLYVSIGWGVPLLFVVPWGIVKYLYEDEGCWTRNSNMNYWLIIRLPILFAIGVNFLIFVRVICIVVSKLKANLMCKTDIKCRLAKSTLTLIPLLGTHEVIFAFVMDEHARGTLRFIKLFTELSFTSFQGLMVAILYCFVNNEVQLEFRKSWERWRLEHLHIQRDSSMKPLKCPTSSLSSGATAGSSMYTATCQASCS

In data set [1], `CC[C@H](C)[C@H](NC(=O)[C@H](Cc1ccccc1)NC(=O)[C@H](CCC(=O)O)NC(=O)[C@H](CCCCN)NC(=O)[C@@H](NC(=O)[C@H](C)NC(=O)[C@H](CCC(=O)O)NC(=O)CNC(=O)[C@H](CCC(=O)O)NC(=O)[C@H](CC(C)C)NC(=O)[C@H](Cc1ccc(O)cc1)NC(=O)[C@H](CO)NC(=O)[C@H](CO)NC(=O)[C@@H](NC(=O)[C@H](CC(=O)O)NC(=O)[C@H](CO)NC(=O)[C@@H](NC(=O)[C@H](Cc1ccccc1)NC(=O)[C@@H](NC(=O)CNC(=O)[C@H](CCC(=O)O)NC(=O)C(C)(C)NC(=O)[C@@H](N)Cc1c[nH]cn1)[C@@H](C)O)[C@@H](C)O)C(C)C)C(C)C)C(=O)N[C@@H](C)C(=O)N[C@@H](Cc1c[nH]c2ccccc12)C(=O)N[C@@H](CC(C)C)C(=O)N[C@H](C(=O)N[C@@H](CCC(=O)O)C(=O)N[C@@H](CCCCN)C(=O)NC(C)(C)C(=O)NCC(=O)N[C@@H](CCC(=O)O)C(=O)N[C@@H](Cc1ccccc1)C(=O)N[C@@H](CC(C)C)C(N)=O)C(C)C` [Compound 32] (H-H[Aib]EGTFTSDVSSYLEGEAVKEFIAWLVEK[Aib]GEFL-NH2) gave a C0 of 108 nM, a Vd of 0.0769 L/kg, a clearance of 1.04 mL/h/kg and a half-life of 51.3 h. Also, in data set [2], the “4 h Cholesterol Efflux Emax” value is reported as 85%. Also, the half-maximal effective concentration (EC50) at human GLP-1 receptor (setting [3]) is 0.039 nM. In addition, at human GLP-1 receptor (setting [4]), the response was half-maximal at 0.013 nM (EC50).
Turning to `CC[C@H](C)[C@H](NC(=O)[C@H](Cc1ccccc1)NC(=O)[C@H](CCC(=O)O)NC(=O)[C@H](CCCCN)NC(=O)[C@H](C)NC(=O)[C@H](C)NC(=O)[C@H](CCC(N)=O)NC(=O)CNC(=O)[C@H](CCC(=O)O)NC(=O)[C@H](CC(C)C)NC(=O)[C@H](Cc1ccc(O)cc1)NC(=O)[C@H](CO)NC(=O)[C@H](CO)NC(=O)[C@@H](NC(=O)[C@H](CC(=O)O)NC(=O)[C@H](CO)NC(=O)[C@@H](NC(=O)[C@H](Cc1ccccc1)NC(=O)[C@@H](NC(=O)CNC(=O)[C@H](CCC(=O)O)NC(=O)C(C)(C)NC(=O)[C@@H](N)Cc1c[nH]cn1)[C@@H](C)O)[C@@H](C)O)C(C)C)C(=O)N[C@@H](C)C(=O)N[C@@H](Cc1c[nH]c2ccccc12)C(=O)N[C@@H](CC(C)C)C(=O)N[C@H](C(=O)N[C@@H](CCC(=O)O)C(=O)N[C@@H](CCCCN)C(=O)NC(C)(C)C(=O)N[C@@H](CCCCN)C(=O)N[C@@H](CCC(=O)O)C(=O)N[C@@H](Cc1ccccc1)C(=O)N[C@@H](CC(C)C)C(N)=O)C(C)C` [Compound 45, [Aib8,Glu34,Lys35,Aib36,Lys37]-GLP-1-(7-37)-peptidyl-Glu-Phe-Leu amide], in data set [1], the C0 amounted to 147 nM, the distribution volume (Vd) was determined as 0.154 L/kg, the clearance was 2.39 mL/h/kg and the half-life is 44.9 h. Moreover, the “4 h Cholesterol Efflux Emax” value in data set [2] is given as 97%. In addition, the concentration giving a half-maximal response (EC50) at human GLP-1 receptor (setting [3]) turned out to be 0.108 nM. Further, at human GLP-1 receptor (setting [4]), the midpoint of the response, the EC50, lay at 0.042 nM.
`CC[C@H](C)[C@H](NC(=O)[C@H](Cc1ccccc1)NC(=O)[C@H](CCC(=O)O)NC(=O)[C@H](CCCCN)NC(=O)[C@H](C)NC(=O)[C@H](C)NC(=O)[C@H](CCC(N)=O)NC(=O)CNC(=O)[C@H](CCC(=O)O)NC(=O)[C@H](CC(C)C)NC(=O)[C@H](Cc1ccc(O)cc1)NC(=O)[C@H](CO)NC(=O)[C@H](CO)NC(=O)[C@@H](NC(=O)[C@H](CC(=O)O)NC(=O)[C@H](CO)NC(=O)[C@@H](NC(=O)[C@H](Cc1ccccc1)NC(=O)[C@@H](NC(=O)CNC(=O)[C@H](CCC(=O)O)NC(=O)C(C)(C)NC(=O)[C@@H](N)Cc1c[nH]cn1)[C@@H](C)O)[C@@H](C)O)C(C)C)C(=O)N[C@@H](C)C(=O)N[C@@H](Cc1c[nH]c2ccccc12)C(=O)N[C@@H](CC(C)C)C(=O)N[C@H](C(=O)N[C@@H](CCCCN)C(=O)N[C@@H](CCCCN)C(=O)NC(C)(C)C(=O)NCC(=O)N[C@@H](CCC(=O)O)C(=O)N[C@@H](Cc1ccccc1)C(=O)N[C@@H](CC(C)C)C(N)=O)C(C)C` [Compound 48]: in data set [1], the C0 was found to be 85.5 nM, the Vd came to 0.0743 L/kg, the clearance was 6.3 mL/h/kg and the half-life was 8.3 h. Further, the “4 h Cholesterol Efflux Emax” value in data set [2] was 71%. For the same compound, the EC50 on human GLP-1 receptor (setting [3]) amounted to 0.045 nM. This compound also came in with an EC50 at human GLP-1 receptor (setting [4]) of 0.015 nM.
In data set [1], `CC[C@H](C)[C@H](NC(=O)[C@H](Cc1ccccc1)NC(=O)[C@H](CCC(=O)O)NC(=O)[C@H](CCCCN)NC(=O)[C@@H](NC(=O)[C@H](C)NC(=O)[C@H](CCC(=O)O)NC(=O)CNC(=O)[C@H](CCC(=O)O)NC(=O)[C@H](CC(C)C)NC(=O)[C@H](Cc1ccc(O)cc1)NC(=O)[C@H](CO)NC(=O)[C@H](CO)NC(=O)[C@@H](NC(=O)[C@H](CC(=O)O)NC(=O)[C@H](CO)NC(=O)[C@@H](NC(=O)[C@H](Cc1ccccc1)NC(=O)[C@@H](NC(=O)CNC(=O)[C@H](CCC(=O)O)NC(=O)C(C)(C)NC(=O)[C@@H](N)Cc1c[nH]cn1)[C@@H](C)O)[C@@H](C)O)C(C)C)C(C)C)C(=O)N[C@@H](C)C(=O)N[C@@H](Cc1c[nH]c2ccccc12)C(=O)N[C@@H](CC(C)C)C(=O)N[C@H](C(=O)N[C@@H](CCC(=O)O)C(=O)N[C@@H](CCCCN)C(=O)NC(C)(C)C(=O)N[C@@H](CCCCN)C(=O)N[C@@H](CCC(=O)O)C(=O)N[C@@H](Cc1ccccc1)C(N)=O)C(C)C` [Compound 62, [Aib8,Glu23,Val25,Glu34,Lys35,Aib36,Lys37]-GLP-1-(7-37)-peptidyl-Glu-Phe amide] (H-H[Aib]EGTFTSDVSSYLEGEAVKEFIAWLVEK[Aib]KEF-NH2) showed a C0 of 50.6 nM, a Vd of 0.0654 L/kg, a clearance of 2.66 mL/h/kg and a half-life of 16.7 h. Besides, the “4 h Cholesterol Efflux Emax” value in data set [2] is recorded as 111%. At human GLP-1 receptor (setting [3]), the EC50 worked out at 0.022 nM. This compound also registered an EC50 on human GLP-1 receptor (setting [4]) of 0.015 nM.
Consider `CC[C@H](C)[C@H](NC(=O)[C@H](Cc1ccccc1)NC(=O)[C@H](CCC(=O)O)NC(=O)[C@H](CCCCN)NC(=O)[C@@H](NC(=O)[C@H](CCCCN)NC(=O)[C@H](CCC(=O)O)NC(=O)CNC(=O)[C@H](CCC(=O)O)NC(=O)[C@H](CC(C)C)NC(=O)[C@H](Cc1ccc(O)cc1)NC(=O)[C@H](CO)NC(=O)[C@H](CO)NC(=O)[C@@H](NC(=O)[C@H](CC(=O)O)NC(=O)[C@H](CO)NC(=O)[C@@H](NC(=O)[C@H](Cc1ccccc1)NC(=O)[C@@H](NC(=O)CNC(=O)[C@H](CCC(=O)O)NC(=O)C(C)(C)NC(=O)[C@@H](N)Cc1c[nH]cn1)[C@@H](C)O)[C@@H](C)O)C(C)C)C(C)C)C(=O)N[C@@H](C)C(=O)N[C@@H](Cc1c[nH]c2ccccc12)C(=O)N[C@@H](CC(C)C)C(=O)N[C@H](C(=O)N[C@@H](CCC(=O)O)C(=O)NCC(=O)NC(C)(C)C(=O)N[C@@H](CCCCN)C(=O)N[C@@H](CCC(=O)O)C(=O)N[C@@H](Cc1ccccc1)C(=O)N[C@@H](CC(C)C)C(N)=O)C(C)C` [Compound 64, [Aib8,Glu23,Lys24,Val25,Glu34,Aib36,Lys37]-GLP-1-(7-37)-peptidyl-Glu-Phe-Leu amide] (H-H[Aib]EGTFTSDVSSYLEGEKVKEFIAWLVEG[Aib]KEFL-NH2), for which, in data set [1], the C0 came to 86.9 nM, the volume of distribution (Vd) is 0.0879 L/kg, the clearance is 2.41 mL/h/kg and the half-life is 25.2 h. Moreover, in data set [2], the “4 h Cholesterol Efflux Emax” value turned out to be 100%. The compound further came in with a half-maximal effective concentration (EC50) at human GLP-1 receptor (setting [4]) of 0.111 nM.
In data set [1], `CC[C@H](C)[C@H](NC(=O)[C@H](Cc1ccccc1)NC(=O)[C@H](CCC(=O)O)NC(=O)[C@H](CCCCN)NC(=O)[C@@H](NC(=O)[C@H](C)NC(=O)[C@H](CCC(=O)O)NC(=O)CNC(=O)[C@H](CCC(=O)O)NC(=O)[C@H](CC(C)C)NC(=O)[C@H](Cc1ccc(O)cc1)NC(=O)[C@H](CO)NC(=O)[C@H](CO)NC(=O)[C@@H](NC(=O)[C@H](CC(=O)O)NC(=O)[C@H](CO)NC(=O)[C@@H](NC(=O)[C@H](Cc1ccccc1)NC(=O)[C@@H](NC(=O)CNC(=O)[C@H](CCC(=O)O)NC(=O)C(C)(C)NC(=O)[C@@H](N)Cc1c[nH]cn1)[C@@H](C)O)[C@@H](C)O)C(C)C)C(C)C)C(=O)N[C@@H](CCC(N)=O)C(=O)N[C@@H](Cc1c[nH]cn1)C(=O)N[C@@H](CC(C)C)C(=O)N[C@H](C(=O)N[C@@H](CCC(=O)O)C(=O)N[C@@H](CCCCN)C(=O)N[C@@H](CC(C)C)C(=O)N[C@@H](CCCCN)C(=O)N[C@@H](CCC(=O)O)C(=O)N[C@@H](Cc1ccccc1)C(=O)N[C@@H](CC(C)C)C(N)=O)C(C)C` [Compound 87, [Aib8,Glu23,Val25,Gln30,His31,Glu34,Lys35,Leu36,Lys37]-GLP-1-(7-37)-peptidyl-Glu-Phe-Leu amide] (H-H[Aib]EGTFTSDVSSYLEGEAVKEFIQHLVEKLKEFL-NH2) gave a C0 of 155 nM, a Vd of 0.0958 L/kg, a clearance of 3.47 mL/h/kg and a half-life of 19 h. Also, the “4 h Cholesterol Efflux Emax” value in data set [2] turned out to be 121%. In addition, the EC50 at human GLP-1 receptor (setting [3]) was 0.077 nM. Moreover, the EC50 on human GLP-1 receptor (setting [4]) was found to be 0.025 nM.

These data come from patent publication US20150344540A1, “NOVEL GLP-1 RECEPTOR AGONISTS WITH CHOLESTEROL EFFLUX ACTIVITY” (NOVO NORDISK A/S, priority 2012, published 2015).
